What was measured:
Type in all cases: biochemical
IKK beta = biological target: T1, IKK beta (Homo sapiens, UniProt O14920); assay: AlphaScreen kinase assay, IKK beta; settings: read-out: IC50, activity toward kinase IKK beta
T1 sequence (O14920 1-756): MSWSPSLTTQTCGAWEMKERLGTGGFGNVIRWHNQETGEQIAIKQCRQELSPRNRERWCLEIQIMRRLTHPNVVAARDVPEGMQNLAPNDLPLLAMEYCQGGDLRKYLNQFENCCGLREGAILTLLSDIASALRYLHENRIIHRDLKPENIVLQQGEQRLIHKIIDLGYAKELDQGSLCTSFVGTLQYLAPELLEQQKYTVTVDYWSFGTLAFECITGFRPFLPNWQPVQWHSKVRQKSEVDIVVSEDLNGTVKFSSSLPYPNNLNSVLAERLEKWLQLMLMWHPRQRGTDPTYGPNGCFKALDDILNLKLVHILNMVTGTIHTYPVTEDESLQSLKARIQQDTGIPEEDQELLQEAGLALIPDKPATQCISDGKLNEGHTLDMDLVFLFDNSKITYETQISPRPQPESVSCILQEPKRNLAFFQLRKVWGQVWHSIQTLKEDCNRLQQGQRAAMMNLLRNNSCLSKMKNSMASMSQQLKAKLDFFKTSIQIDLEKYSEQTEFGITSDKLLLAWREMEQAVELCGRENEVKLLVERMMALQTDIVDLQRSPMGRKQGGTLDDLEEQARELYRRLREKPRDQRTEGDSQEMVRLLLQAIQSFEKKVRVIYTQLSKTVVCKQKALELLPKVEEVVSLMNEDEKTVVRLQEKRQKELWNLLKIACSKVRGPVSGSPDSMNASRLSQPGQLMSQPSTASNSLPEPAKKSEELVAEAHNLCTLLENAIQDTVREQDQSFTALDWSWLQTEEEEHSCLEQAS

Kdr = biological target: T2, Kdr (Homo sapiens, UniProt P35968); assay: Z'-Lyte FRET kinase assay (Invitrogen), Kdr; settings: read-out: IC50, activity toward kinase Kdr
T2 construct: purchased Invitrogen (assay run by Invitrogen)

Flt1 = biological target: T3, Flt1 (Homo sapiens, UniProt P17948); assay: AlphaScreen kinase assay, Flt1; settings: read-out: IC50, activity toward kinase Flt1
T3 construct: P1826.pETN6 BI-PTP FLT1 M799-D1165-X WT; His6 (N); made in house; host or cells: E. coli (PTP1B co-expressed)
T3 sequence (P17948 with tags, fused parts or gaps): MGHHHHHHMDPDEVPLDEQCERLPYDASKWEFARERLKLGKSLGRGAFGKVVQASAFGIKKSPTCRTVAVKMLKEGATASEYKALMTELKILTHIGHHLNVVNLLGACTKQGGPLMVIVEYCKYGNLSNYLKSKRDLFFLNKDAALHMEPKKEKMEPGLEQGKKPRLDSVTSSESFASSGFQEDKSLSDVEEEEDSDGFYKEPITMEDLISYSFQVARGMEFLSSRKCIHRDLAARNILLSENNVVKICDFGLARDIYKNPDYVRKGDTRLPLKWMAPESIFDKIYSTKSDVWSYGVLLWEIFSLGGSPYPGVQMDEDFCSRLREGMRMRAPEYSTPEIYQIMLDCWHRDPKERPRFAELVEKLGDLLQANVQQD
Text: AlphaScreen assay was used to screen additional kinases. The assay is similarly dependent on the phosphorylation of a peptide substrate. In this assay, an antibody that recognizes phosphorylated substrate is bound to an acceptor bead. The peptide substrate is attached to biotin, which binds to a donor head that contains streptavidin. Thus phosphorylated substrate is bound by antibody and streptavidin, bringing the donor and acceptor heads into close proximity when kinase is not inhibited. The donor produces singlet oxygen which results in emission from the acceptor when they are in close proximity. Conversely, when kinase is inhibited, the donor and acceptor beads are not associated and the emission from the acceptor is reduced.
AlphaScreen assays were done using compounds dissolved in DMSO to a concentration of 20 mM. The compounds were diluted accordingly to the desired final concentrations in each sample well, using 1:3 serial dilution for a total of 8 concentration points. Plates were prepared such that each kinase reaction is 20 μl in 1× kinase buffer, 5% DMSO and 10 μM ATP. After incubation of the kinase reaction for 1 hour at room temperature, 5 μl of donor beads in stop buffer (50 mM EDTA in 1× kinase buffer) was added, the sample was mixed and incubated for 20 minutes at room temperature before adding 5 μl of acceptor beads in stop buffer. The samples were incubated for 60 minutes at room temperature and the signal per well was read on AlphaQuest reader.

Stk6 = biological target: T4, Stk6 (Homo sapiens, UniProt O14965); assay: Z'-Lyte FRET kinase assay (Invitrogen), Stk6; settings: read-out: IC50, activity toward kinase Stk6
T4 construct: purchased Invitrogen (Carlsbad, Calif.), screening service
T4 sequence (O14965 1-403): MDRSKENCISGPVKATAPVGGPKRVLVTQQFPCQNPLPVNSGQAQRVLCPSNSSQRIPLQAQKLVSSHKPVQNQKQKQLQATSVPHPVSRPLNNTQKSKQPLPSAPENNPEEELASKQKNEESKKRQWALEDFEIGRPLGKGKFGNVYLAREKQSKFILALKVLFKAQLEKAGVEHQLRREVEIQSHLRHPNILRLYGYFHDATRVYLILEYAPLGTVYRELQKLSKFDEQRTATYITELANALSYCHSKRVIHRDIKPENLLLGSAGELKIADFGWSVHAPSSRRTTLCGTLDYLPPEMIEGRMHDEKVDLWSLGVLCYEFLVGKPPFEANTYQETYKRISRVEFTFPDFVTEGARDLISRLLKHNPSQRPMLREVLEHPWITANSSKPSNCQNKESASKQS

Yes = biological target: T5, Yes (Homo sapiens, UniProt P07947); assay: Z'-Lyte FRET kinase assay (Invitrogen), Yes; settings: read-out: IC50, activity toward kinase Yes
T5 construct: purchased Invitrogen (Carlsbad, Calif.), screening service
Summary of the method: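 Serially diluted compound (1% DMSO final) is mixed with kinase plus 2 μM peptide substrate in pH 7.5 HEPES buffer, then ATP is added to 10 μM. After 1 h at room temperature, site-specific protease is added for another hour, reactions are stopped and fluorescence ratio measured.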

Gsk3β = Gsk3β (Homo sapiens, UniProt P49841); assay: AlphaScreen kinase assay, Gsk3β; settings: read-out: IC50, activity toward kinase Gsk3β
Summary of the method: (§1)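 Eight concentrations per compound (1:3 serial dilution of 20 mM DMSO stock) were tested. Read-out: AlphaScreen signal from phospho-antibody acceptor and streptavidin donor beads bound to biotinylated peptide substrate, reduced on kinase inhibition.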

MAP2K1 = biological target: T6, MAP2K1 (Homo sapiens, UniProt Q02750); assay: Z'-Lyte FRET kinase assay (Invitrogen), MAP2K1; settings: read-out: IC50, activity toward kinase MAP2K1
T6 construct: purchased Invitrogen (assay run by Invitrogen)
Text: For example, direct radiometric, indirect FRET or AlphaScreen assays may be used to assess the level of phosphorylation of a substrate in the presence of test compounds in order to determine the inhibitory affect of the compound on the kinase. […] For these assays, compounds of the invention were screened by Invitrogen using Z′-Lyte™ kinase assay.
Briefly, the Invitrogen kinase assay involves use of a specific peptide substrate optimized for each kinase, containing a fluorophore at each end that make up the FRET pair. The peptide sensitivity to proteolytic cleavage depends on phosphorylation of the peptide. Non-phosphorylated peptide is cleaved by a protease while peptide phosphorylated by the kinase is not cleaved. Cleavage of the peptide disrupts the FRET between the donor (coumarin) and acceptor (fluorescein) fluorophores, resulting in an increase in the ratio of donor emission to acceptor emission. The emission ratio of coumarin to fluorescein is used to assess the reaction progress. […] Thus, the assay involves a kinase reaction in the presence of varying concentrations of a given compound, a development reaction with site specific protease, and detection of the fluorescent emission ratio of coumarin and fluorscein. […] Reaction conditions for each kinase are determined to provide optimal reaction times, incubation temperature, kinase and ATP concentrations. Test samples are made up in 1× kinase buffer (50 mM HEPES pH 7.5, 50 mM MgCl2, 5 mM EGTA, 0.05% BRIJ-35) and compound at desired concentration prepared in DMSO such that the final DMSO is 1%. […] All kinase except for MAP2K1 were at 10 μM ATP in the kinase reaction, while MAP2K1 was at 100 μM. Samples are mixed and the kinase reaction is incubated 1 hour at room temperature, after which 5 μl of development solution is added and mixed. After incubation for another 1 hour at room temperature, 5 μl of stop reagent is added to each sample and mixed. The fluorescence signals are measured to determine the emission ratio.

Btk = biological target: T7, Btk (Homo sapiens, UniProt Q06187); assay: Z'-Lyte FRET kinase assay (Invitrogen), Btk; settings: read-out: IC50, activity toward kinase Btk
T7 construct: purchased Invitrogen (assay run by Invitrogen)

Jnk3 = biological target: T8, Jnk3 (Homo sapiens, UniProt P53779); assay: AlphaScreen kinase assay, Jnk3; settings: read-out: IC50, activity toward kinase Jnk3
T8 construct: purchased Upstate Biotechnology

Kit = biological target: T9, Kit (Homo sapiens, UniProt P10721); assay: AlphaScreen kinase assay, Kit; settings: read-out: IC50, activity toward kinase Kit
T9 construct: P1332.N6 BI PTP KIT M552-K948-X COD; His6 (N); made in house; host or cells: E. coli (PTP1B co-expressed)

Ret = biological target: T10, Ret (Homo sapiens, UniProt P07949); assay: AlphaScreen kinase assay, Ret; settings: read-out: IC50, activity toward kinase Ret
T10 construct: P1378.pET-SF BI-PTP RET H661-R1012 HIS; made in house
T10 sequence (P07949 with tags, fused parts or gaps): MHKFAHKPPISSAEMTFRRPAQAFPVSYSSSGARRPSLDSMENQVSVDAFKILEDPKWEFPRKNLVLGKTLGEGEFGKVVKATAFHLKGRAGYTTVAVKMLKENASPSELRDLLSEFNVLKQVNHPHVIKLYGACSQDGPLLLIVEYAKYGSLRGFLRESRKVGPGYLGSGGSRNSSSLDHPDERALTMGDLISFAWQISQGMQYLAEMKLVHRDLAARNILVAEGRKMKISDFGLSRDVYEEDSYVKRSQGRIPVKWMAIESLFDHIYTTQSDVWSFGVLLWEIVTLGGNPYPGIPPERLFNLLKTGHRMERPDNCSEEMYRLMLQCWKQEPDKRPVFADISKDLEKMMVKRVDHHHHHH

Akt3 = Akt3 (Homo sapiens, UniProt Q9Y243); assay: AlphaScreen kinase assay, Akt3; settings: read-out: IC50, activity toward kinase Akt3
Summary of the method: as §1

FGFR1 = biological target: T11, FGFR1 (Homo sapiens, UniProt P11362, C488A/C584S); assay: AlphaScreen kinase assay, FGFR1; settings: read-out: IC50, activity toward kinase FGFR
T11 construct: P1351.pET N6 BI-PTP FGFR A458-E765-X C488A, C584S; made in house; host or cells: E. coli (PTP1B co-expressed)

MAP4K4 = MAP4K4 (Homo sapiens, UniProt O95819); assay: AlphaScreen kinase assay, MAP4K4; settings: read-out: IC50, activity toward kinase MAP4K4
c-Raf-1 = biological target: T12, c-Raf-1 (Homo sapiens, UniProt P04049); assay: AlphaScreen kinase assay, c-Raf-1; settings: read-out: IC50, activity toward kinase c-Raf-1
T12 construct: purchased Upstate Biotechnology

B-Raf V600E = biological target: T13, B-Raf V600E (Homo sapiens, UniProt P15056, V600E); assay: AlphaScreen kinase assay, B-Raf V600E; settings: read-out: IC50, activity toward kinase B-Raf V600E
T13 construct: P4254. pFastBacBD-CDC37 BRAF D437-K722-X, V600E; His6 with pFastBac HT leader (TEV site) (N); made in house; host or cells: Sf9 (baculovirus; chaperone CDC37 co-expressed)

B-Raf = biological target: T14, B-Raf (Homo sapiens, UniProt P15056); assay: AlphaScreen kinase assay, B-Raf; settings: read-out: IC50, activity toward kinase B-Raf
T14 construct: purchased Upstate Biotechnology

Measured: IC50

T2 sequence (P35968 20-1356): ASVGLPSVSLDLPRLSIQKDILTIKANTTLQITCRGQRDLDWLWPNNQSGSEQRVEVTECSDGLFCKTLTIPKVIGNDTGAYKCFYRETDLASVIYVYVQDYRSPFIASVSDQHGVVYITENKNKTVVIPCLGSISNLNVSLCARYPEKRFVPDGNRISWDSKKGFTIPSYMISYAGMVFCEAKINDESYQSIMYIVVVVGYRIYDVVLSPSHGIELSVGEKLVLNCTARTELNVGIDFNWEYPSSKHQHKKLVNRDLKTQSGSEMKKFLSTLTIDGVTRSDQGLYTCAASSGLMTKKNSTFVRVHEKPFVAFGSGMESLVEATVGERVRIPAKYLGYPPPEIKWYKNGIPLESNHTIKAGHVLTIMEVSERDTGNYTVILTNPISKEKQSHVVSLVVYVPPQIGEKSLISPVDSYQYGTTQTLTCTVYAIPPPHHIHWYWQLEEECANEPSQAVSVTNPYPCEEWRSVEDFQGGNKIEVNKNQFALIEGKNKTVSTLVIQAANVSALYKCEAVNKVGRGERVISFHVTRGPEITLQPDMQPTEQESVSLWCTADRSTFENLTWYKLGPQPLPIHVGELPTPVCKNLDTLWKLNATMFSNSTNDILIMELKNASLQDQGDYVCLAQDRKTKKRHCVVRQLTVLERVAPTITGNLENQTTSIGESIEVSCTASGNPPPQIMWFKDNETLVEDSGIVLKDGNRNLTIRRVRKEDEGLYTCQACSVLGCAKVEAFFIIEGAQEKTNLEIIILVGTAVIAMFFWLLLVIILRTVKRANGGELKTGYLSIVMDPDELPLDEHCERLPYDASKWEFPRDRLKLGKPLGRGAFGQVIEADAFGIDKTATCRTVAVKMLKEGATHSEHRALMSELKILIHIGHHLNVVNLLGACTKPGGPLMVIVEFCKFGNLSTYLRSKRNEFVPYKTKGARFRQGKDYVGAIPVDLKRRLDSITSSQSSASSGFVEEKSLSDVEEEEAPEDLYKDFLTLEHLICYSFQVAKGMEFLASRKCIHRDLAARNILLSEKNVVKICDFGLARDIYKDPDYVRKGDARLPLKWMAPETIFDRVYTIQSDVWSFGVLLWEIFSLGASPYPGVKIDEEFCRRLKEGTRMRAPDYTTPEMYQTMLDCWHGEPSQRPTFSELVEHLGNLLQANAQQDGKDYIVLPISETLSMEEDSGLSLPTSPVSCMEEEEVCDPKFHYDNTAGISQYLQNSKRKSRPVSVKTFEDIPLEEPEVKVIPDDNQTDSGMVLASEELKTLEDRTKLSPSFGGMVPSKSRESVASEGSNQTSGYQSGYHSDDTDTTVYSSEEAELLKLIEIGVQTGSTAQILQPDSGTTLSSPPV
T8 sequence (P53779 whole entry): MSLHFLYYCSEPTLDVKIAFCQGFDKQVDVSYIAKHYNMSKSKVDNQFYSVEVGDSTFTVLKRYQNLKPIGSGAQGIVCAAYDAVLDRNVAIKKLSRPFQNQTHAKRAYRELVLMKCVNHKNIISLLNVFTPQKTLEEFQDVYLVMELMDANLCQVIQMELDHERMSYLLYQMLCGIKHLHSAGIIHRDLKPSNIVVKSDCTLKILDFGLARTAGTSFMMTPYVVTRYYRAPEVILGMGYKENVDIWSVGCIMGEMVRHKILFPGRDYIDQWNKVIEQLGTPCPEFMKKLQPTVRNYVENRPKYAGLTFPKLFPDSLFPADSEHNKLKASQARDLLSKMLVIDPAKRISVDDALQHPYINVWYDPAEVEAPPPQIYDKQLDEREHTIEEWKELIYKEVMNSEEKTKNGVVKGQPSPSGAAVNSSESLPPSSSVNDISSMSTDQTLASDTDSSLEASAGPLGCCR
T11 sequence (P11362 458-765 C488A/C584S): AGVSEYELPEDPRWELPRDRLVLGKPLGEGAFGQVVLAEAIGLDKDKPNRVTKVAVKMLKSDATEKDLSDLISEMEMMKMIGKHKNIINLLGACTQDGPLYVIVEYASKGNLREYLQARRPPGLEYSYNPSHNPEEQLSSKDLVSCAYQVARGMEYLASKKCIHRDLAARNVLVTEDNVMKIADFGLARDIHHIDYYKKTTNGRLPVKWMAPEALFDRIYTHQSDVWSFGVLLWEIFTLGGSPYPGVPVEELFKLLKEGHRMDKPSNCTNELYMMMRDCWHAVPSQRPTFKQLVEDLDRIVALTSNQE
T9 sequence (P10721 with tags, fused parts or gaps): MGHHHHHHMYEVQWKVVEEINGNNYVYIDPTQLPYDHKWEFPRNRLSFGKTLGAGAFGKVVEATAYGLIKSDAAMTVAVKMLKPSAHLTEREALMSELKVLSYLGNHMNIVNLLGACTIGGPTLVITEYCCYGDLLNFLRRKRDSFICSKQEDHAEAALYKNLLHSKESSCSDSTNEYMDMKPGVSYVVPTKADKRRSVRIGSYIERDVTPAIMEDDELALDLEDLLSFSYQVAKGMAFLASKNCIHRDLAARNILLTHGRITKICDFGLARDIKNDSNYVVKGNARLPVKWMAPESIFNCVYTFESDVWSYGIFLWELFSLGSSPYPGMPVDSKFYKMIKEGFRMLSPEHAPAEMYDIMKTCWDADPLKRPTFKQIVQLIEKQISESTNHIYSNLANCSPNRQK
T13 sequence (P15056 with tags, fused parts or gaps V600E): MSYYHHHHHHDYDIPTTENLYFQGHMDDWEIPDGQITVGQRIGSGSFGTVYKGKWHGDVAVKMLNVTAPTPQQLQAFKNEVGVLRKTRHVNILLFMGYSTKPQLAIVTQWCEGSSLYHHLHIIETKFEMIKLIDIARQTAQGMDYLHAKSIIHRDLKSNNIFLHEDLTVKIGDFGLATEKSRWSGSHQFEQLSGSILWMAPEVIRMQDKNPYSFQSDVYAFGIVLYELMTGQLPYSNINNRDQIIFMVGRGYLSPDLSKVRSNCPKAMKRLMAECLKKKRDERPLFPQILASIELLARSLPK
T7 sequence (Q06187 whole entry): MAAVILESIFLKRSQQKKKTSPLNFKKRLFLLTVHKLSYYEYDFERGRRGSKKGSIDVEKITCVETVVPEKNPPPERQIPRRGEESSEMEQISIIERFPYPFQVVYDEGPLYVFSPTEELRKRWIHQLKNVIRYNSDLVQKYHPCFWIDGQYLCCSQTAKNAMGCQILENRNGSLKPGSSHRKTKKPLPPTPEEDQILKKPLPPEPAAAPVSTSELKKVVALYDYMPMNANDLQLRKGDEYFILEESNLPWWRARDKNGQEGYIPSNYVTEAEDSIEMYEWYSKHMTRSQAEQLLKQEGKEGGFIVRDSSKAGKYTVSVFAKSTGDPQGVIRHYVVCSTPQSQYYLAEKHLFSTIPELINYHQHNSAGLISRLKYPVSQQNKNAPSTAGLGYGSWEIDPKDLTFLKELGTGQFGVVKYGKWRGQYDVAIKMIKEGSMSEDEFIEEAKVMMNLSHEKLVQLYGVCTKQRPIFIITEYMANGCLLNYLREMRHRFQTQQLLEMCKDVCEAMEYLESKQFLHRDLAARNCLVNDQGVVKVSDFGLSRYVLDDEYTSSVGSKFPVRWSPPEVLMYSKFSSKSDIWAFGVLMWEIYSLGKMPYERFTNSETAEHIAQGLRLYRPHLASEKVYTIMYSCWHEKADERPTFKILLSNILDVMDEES
T14 sequence (P15056 whole entry): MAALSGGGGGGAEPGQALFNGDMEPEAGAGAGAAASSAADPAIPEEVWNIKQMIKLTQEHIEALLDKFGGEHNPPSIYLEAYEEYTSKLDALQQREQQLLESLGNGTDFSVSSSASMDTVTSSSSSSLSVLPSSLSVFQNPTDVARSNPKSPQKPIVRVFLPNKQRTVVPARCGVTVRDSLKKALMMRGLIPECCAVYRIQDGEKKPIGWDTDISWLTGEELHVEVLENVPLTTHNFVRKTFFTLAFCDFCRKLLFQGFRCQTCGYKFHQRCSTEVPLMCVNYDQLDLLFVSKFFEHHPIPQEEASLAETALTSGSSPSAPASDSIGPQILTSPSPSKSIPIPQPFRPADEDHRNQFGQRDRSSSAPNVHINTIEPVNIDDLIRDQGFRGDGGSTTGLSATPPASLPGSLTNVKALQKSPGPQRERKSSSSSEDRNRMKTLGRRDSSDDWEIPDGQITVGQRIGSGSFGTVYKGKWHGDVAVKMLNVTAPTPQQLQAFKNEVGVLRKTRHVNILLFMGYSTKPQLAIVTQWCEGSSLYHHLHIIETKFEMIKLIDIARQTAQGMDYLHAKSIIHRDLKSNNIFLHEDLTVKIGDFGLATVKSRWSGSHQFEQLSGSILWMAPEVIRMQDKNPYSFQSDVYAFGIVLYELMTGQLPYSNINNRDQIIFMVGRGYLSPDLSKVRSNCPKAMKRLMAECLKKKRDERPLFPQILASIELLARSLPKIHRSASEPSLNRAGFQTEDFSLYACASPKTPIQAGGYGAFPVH
T12 sequence (P04049 whole entry): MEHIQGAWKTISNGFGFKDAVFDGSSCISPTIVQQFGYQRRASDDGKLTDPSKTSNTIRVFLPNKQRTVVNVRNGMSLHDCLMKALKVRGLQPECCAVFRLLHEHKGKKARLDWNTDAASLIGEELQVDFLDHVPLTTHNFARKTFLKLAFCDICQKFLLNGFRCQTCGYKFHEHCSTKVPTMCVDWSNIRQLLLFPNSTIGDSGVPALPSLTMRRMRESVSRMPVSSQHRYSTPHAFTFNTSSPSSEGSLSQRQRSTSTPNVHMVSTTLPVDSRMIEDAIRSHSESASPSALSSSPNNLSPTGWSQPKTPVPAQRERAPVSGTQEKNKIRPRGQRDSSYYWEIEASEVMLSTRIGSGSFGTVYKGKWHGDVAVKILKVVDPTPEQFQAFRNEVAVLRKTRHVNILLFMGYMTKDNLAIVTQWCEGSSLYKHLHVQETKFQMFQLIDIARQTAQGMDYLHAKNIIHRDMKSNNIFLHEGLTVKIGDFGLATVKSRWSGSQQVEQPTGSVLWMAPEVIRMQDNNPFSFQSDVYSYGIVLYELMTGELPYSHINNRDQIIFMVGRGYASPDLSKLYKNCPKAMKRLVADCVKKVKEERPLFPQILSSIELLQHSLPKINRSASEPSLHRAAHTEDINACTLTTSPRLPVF

COc1ccc(C#Cc2ccnc3[nH]ccc23)cc1 [Compound P-0920]
≤ 10 µM: IKK beta

Cc1cc(-c2c(C)[nH]c3ncccc23)ccc1F [Compound P-0376]
≤ 10 µM: Kdr | IKK beta

c1cc(-c2ccsc2)c2cc[nH]c2n1 [Compound P-0629]
≤ 10 µM: Flt1 | IKK beta

O=C(CCBr)c1c[nH]c2ncccc12 [Compound P-0081]
≤ 10 µM: Stk6 | Yes | Kdr | Gsk3β | MAP2K1 | Btk

Cc1nc(-c2ccnc3[nH]ccc23)no1 [Compound P-0163]
≤ 10 µM: Stk6 | Kdr | IKK beta

c1cc2cc(-c3ccsc3)cnc2[nH]1 [Compound P-0133]
≤ 10 µM: Stk6 | Kdr | Jnk3 | Kit | IKK beta

C[C@H]1CN(c2ccc(-c3ccnc4[nH]ccc34)cn2)CCN1 [Compound P-0410]
≤ 10 µM: IKK beta

Fc1cc(F)cc(-c2ccnc3[nH]cc(Sc4ccc(Cl)cc4)c23)c1 [Compound P-0172]
≤ 10 µM: Stk6 | Kdr | IKK beta

N#CCc1ccc(-c2c[nH]c3ncccc23)cc1 [Compound P-0164]
≤ 10 µM: Stk6 | Kdr | IKK beta

CS(=O)(=O)c1ccc(-c2cnc3[nH]ccc3c2)cc1 [Compound P-0682]
≤ 10 µM: Jnk3 | Ret | Kit | IKK beta

c1ccc2sc(-c3ccnc4[nH]ccc34)cc2c1 [Compound P-0404]
≤ 10 µM: Akt3 | FGFR1 | Kit | Flt1 | IKK beta

COc1cccc(-c2c[nH]c3ncccc23)c1 [Compound P-0216]
≤ 10 µM: Kdr | Kit | IKK beta

c1ccc2oc(-c3ccnc4[nH]ccc34)cc2c1 [Compound P-0790]
≤ 10 µM: IKK beta

COc1ccc(-c2c[nH]c3ncccc23)cc1F [Compound P-0690]
≤ 10 µM: Kit | IKK beta

Nc1cccc(C(=O)c2c[nH]c3ncccc23)c1 [Compound P-0096]
≤ 10 µM: FGFR1 | Kdr | Ret | IKK beta

CCS(=O)(=O)c1ccc(-c2c[nH]c3ncccc23)cc1 [Compound P-0272]
≤ 10 µM: Stk6 | IKK beta

CSc1cccc(-c2c[nH]c3ncccc23)c1 [Compound P-0315]
≤ 10 µM: Kit | Flt1 | IKK beta

CCCNS(=O)(=O)c1ccc(F)c(C(=O)c2c[nH]c3ncc(-c4cccnc4)cc23)c1F [Compound P-0896]
≤ 10 µM: MAP4K4 | FGFR1 | c-Raf-1 | B-Raf V600E | IKK beta | B-Raf

CCS(=O)(=O)c1ccc(-c2c(C)[nH]c3ncccc23)cc1 [Compound P-1223]
≤ 10 µM: IKK beta

COc1cccc(C(=O)c2c[nH]c3nccc(-c4ccc(C(N)=O)cc4)c23)c1 [Compound P-0073]
≤ 10 µM: FGFR1 | Kdr | Btk | Ret | B-Raf V600E | IKK beta

c1csc(-c2cnc3[nH]ccc3c2)c1 [Compound P-0179]
≤ 10 µM: Stk6 | Kdr | Jnk3 | Ret | Kit | IKK beta
